According to PubChem BioAssay AID504481 (NMMLSC, 2011):
Activity calls are given as the source filed them.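 How the source made its calls: active means fold change below 0.65 in a panel strain, matching the primary screen cutoff; inactive means the rest.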

Assays:
Assay in all cases: GFP reporter expression in transducer deletion yeast, mechanism study for yeast TOR pathway modulator project, S. cerevisiae, transducer mutant strains, GFP-tagged proteins (AID 504481);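 further: 1 = DMSO wells as ratio of mean channel GFP fluorescence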
Conditions in all cases: S. cerevisiae transducer mutants, GFP-fusion expression, flow cytometry, 3 h
YKL103C = tested on: YKL103C
YCL025C = tested on: YCL025C
YNL142W = tested on: YNL142W
BY4741 = tested on: BY4741
YBR084C-A = tested on: YBR084C-A
YCR005C = tested on: YCR005C

Row | Structure (SMILES) | fold change (YKL103C) | fold change (YCL025C) | fold change (YNL142W) | fold change (BY4741) | fold change (YBR084C-A) | fold change (YCR005C)
1 | Clc1ccc(N=c2ssnc2Cl)cc1 | 1.45 (inactive) | 0.846 (inactive) | 0.957 (inactive) | 1.08 (inactive) | 0.99 (inactive) | 0.981 (inactive)
2 | Cc1ccc(C(c2cc(Cl)c3cccnc3c2O)N2CCN(C)CC2)cc1 (stereo not drawn) | 1.8 | 1.06 (inactive) | 1.03 (inactive) | 0.978 (inactive) | 1.03 (inactive) | 0.889 (inactive)
3 | CC(C)(C)C(=O)NC(=S)NNC(=O)c1ccc(-c2ccccc2)cc1 | 2.06 | 1.32 (inactive) | 1.46 (inactive) | 1.48 (inactive) | 1.19 (inactive) | 1.2 (inactive)
4 | CO[C@H]1C[C@@H]2CC[C@@H](C)[C@@](O)(O2)C(=O)C(=O)N2CCCC[C@H]2C(=O)O[C@H]([C@H](C)C[C@@H]2CC[C@@H](O)[C@H](OC)C2)CC(=O)[C@H](C)/C=C(\C)[C@@H](O)[C@@H](OC)C(=O)[C@H](C)C[C@H](C)/C=C/C=C/C=C/1C | 2.54 | 2.29 | 12.2 | 1.12 (inactive) | 0.616 | 3.51
5 | Cn1ncc(S(=O)(=O)Cc2ccccc2)c(Cl)c1=O | 1.83 | 1.13 (inactive) | 1.47 (inactive) | 1.33 (inactive) | 0.743 (inactive) | 1.24 (inactive)
6 | O=[N+]([O-])c1ccc(O)c2ncccc12 | 2.22 | 1.47 (inactive) | 1.26 (inactive) | 1.48 (inactive) | 1.19 (inactive) | 1.21 (inactive)
7 | CC(=O)c1ccc(N2CCN(C(=O)c3ccc(Br)cc3)CC2)c(F)c1 | 1.69 | 1.22 (inactive) | 1.3 (inactive) | 1.31 (inactive) | 1.27 (inactive) | 1.72
8 | CSC1=NS(=O)(=O)c2c(C)nn(C)c2S1 | 1.3 (inactive) | 0.969 (inactive) | 0.896 (inactive) | 0.902 (inactive) | 0.857 (inactive) | 0.841 (inactive)
9 | CCOC(=O)c1c(C)oc2c1c(C(c1cccnc1)N1CCOCC1)c(O)c1ccccc12 (stereo not drawn) | 1.36 (inactive) | 0.907 (inactive) | 1.26 (inactive) | 1.18 (inactive) | 0.759 (inactive) | 1.27 (inactive)
10 | O=C(CCc1ccccc1)NNC(=S)NC(=O)c1ccccc1 | 2.56 | 0.995 (inactive) | 1.2 (inactive) | 1.64 (inactive) | 1.22 (inactive) | 1.32 (inactive)
11 | COc1ccc(C(=O)NNC(=S)NC(=O)/C=C/c2cccs2)cc1 | 1.51 | 1.38 (inactive) | 1.13 (inactive) | 1.03 (inactive) | 1.23 (inactive) | 1.07 (inactive)
12 | O=S(=O)(CCN(CCS(=O)(=O)C(F)(F)F)CC1CCCO1)C(F)(F)F (stereo not drawn) | 1.89 | 0.948 (inactive) | 0.965 (inactive) | 0.957 (inactive) | 0.989 (inactive) | 1.23 (inactive)
13 | CC(C)(C)C(=O)C(Cl)C(=O)Nc1ccccc1 (stereo not drawn) | 2.24 | 1.11 (inactive) | 1.36 (inactive) | 1 (inactive) | 0.877 (inactive) | 1.44 (inactive)
